Reference: PubChem BioAssay (NCI)
“And” between values parts separate entries of the source, which are not always exact repeats. Identical values can stand only once.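 Growth conditions: 96-well plates. Treatment: test compound, 48 hours, 5 concentrations. Analysis: linear interpolation between bracketing concentrations; unreached endpoints set to highest concentration. The concentration for 50% growth inhibition is given as GI50. TGI: concentration producing complete growth inhibition.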

Experiments:
Assay in all cases: inhibition of tumour cell growth, NCI panel, 48 h
[1] = test system: T-47D breast
[2] = test system: HCT-116 colon
[3] = test system: SK-OV-3 ovarian
[4] = test system: SF-295 CNS
[5] = test system: LOX IMVI melanoma
[6] = test system: NCI/ADR-RES ovarian
[7] = test system: SW-620 colon
[8] = test system: OVCAR-4 ovarian
[9] = test system: COLO 205 colon
[10] = test system: HOP-92 NSCLC

Structure (SMILES) | GI50 [1] | TGI [1] | GI50 [2] | TGI [2] | GI50 [3] | TGI [3] | GI50 [4] | TGI [4] | GI50 [5] | TGI [5] | GI50 [6] | TGI [6] | GI50 [7] | TGI [7] | GI50 [8] | TGI [8] | GI50 [9] | TGI [9] | GI50 [10] | TGI [10]
COc1ccc(/C(COc2ccc3c(=O)cc(-c4ccccc4)oc3c2)=N\O)cc1 | 21.7 µM | > 45.8 µM | 21.2 µM | > 50 µM | 16.1 µM | 48.4 µM | 12.5 µM | 42.8 µM | 9.4 µM | 24.4 µM | 15.4 µM | > 50 µM | > 35.6 µM | > 50 µM | 21.5 µM | > 41.5 µM | 26.5 µM | > 50 µM | > 27.7 µM | > 50 µM
CN(O)c1nc(N(C)O)nc(N2CCOCC2)n1 | 8.07 µM | > 100 µM | 1.07 µM | > 100 µM | 12.6 µM | > 100 µM | 2.57 µM | > 100 µM | 1.67 µM | > 100 µM | 2.56 µM | > 100 µM | 11.2 µM | > 100 µM | 2.02 µM | > 100 µM | 3.69 µM | > 100 µM | 8.77 µM | > 100 µM
CN[C@@H](C)C(=O)N[C@H](C(=O)N1CCC[C@H]1C(=O)Nc1snnc1-c1ccccc1)C1CCCCC1 | 57.5 µM | > 100 µM | 41.6 µM | > 100 µM | 0.0244 µM | 0.723 µM | 34.4 µM | > 100 µM | 35.3 µM | > 83.3 µM | 66.1 µM | > 100 µM | > 100 µM | > 100 µM | 5.58 µM | 99.6 µM | 21.6 µM | 42.1 µM | 3.06 µM | 27.7 µM
COc1cc(C[C@H]2c3cc(OC)c(OC)cc3CCN2C)c(Oc2cc3c(cc2OC)-c2c(OC)c(OC)cc4c2[C@H](C3)N(C)CC4)cc1OC | – | 23.4 µM | 10.4 µM | 14 µM and 22.4 µM | 15.1 µM and 21.1 µM | 40 µM and 36.2 µM | 16.5 µM | 21 µM and 30.7 µM | 9.21 µM | 14.7 µM and 24.3 µM | – | 32.3 µM | 13.3 µM | 22.6 µM and 32.5 µM | 14.6 µM | 23.9 µM and 28.6 µM | 2.17 µM | 12.6 µM and 8.09 µM | 13.3 µM | 8.94 µM and 28.8 µM
COC(=O)c1nc(-c2ccccc2)oc1S(=O)(=O)Cc1ccccc1 | 2.17 µM | 5.95 µM | 2.58 µM | 6.23 µM | 70.2 µM | > 100 µM | 16.5 µM | 36.3 µM | 2.88 µM | 8.7 µM | 16.9 µM | 36.3 µM | 2.05 µM | 4.14 µM | 1.82 µM | 3.4 µM | 1.84 µM | 3.66 µM | 1.61 µM | 3.12 µM
C=C1C(=O)O[C@H]2[C@H]1CC/C(COC(=O)NCc1ccc(Cn3c(=O)sn(CCCl)c3=O)cc1)=C\CC[C@@]1(C)O[C@@H]21 | 1.97 µM | 5.16 µM | 1.62 µM | 3.08 µM | 16.1 µM | 29.7 µM | 16.4 µM | 30.3 µM | 1.69 µM | 3.12 µM | 26.3 µM | 77.8 µM | 1.17 µM | 2.69 µM | 1.92 µM | 4.01 µM | 1.84 µM | 3.6 µM | 1.5 µM | 3.22 µM
COc1ccc2nc3cccc([N+](=O)[O-])c3c(NCCCCCC(=O)O)c2c1 | 0.856 µM | 12 µM | 0.0107 µM | 3.51 µM | 0.915 µM | 5.41 µM | 0.447 µM | 4.55 µM | 0.171 µM | 0.487 µM | 0.313 µM | 2.61 µM | – | 0.268 µM | 0.393 µM | 1.72 µM | – | 0.078 µM | 0.0878 µM | 0.456 µM
CCN(CC)CCCC(C)Nc1ccnc2cc(Oc3ccccc3)ccc12 (stereo unspecified) | 1.68 µM and 2.39 µM | 3.32 µM and 6.19 µM | 2.59 µM and 3.03 µM | 13.1 µM and 21.9 µM | 15.7 µM and 22.9 µM | 32.2 µM and 78.9 µM | 2.69 µM and 4.09 µM | 17.4 µM and 19 µM | 2.05 µM and 2.13 µM | 5.06 µM and 6.82 µM | 14.3 µM and 38.4 µM | 34.1 µM and > 100 µM | 3.36 µM and 5.53 µM | 14.3 µM and 25.9 µM | 9.78 µM and 16 µM | 41.7 µM and 59.2 µM | 1.88 µM and 1.65 µM | 4.4 µM and 3.94 µM | 5.62 µM and 3.78 µM | 20.5 µM and 27 µM
C=C1CCC2C3(C)COC(c4ccc(N(C)C)cc4)OC3CCC2(C)C1C/C=C1/C(=O)OCC1O (stereo unspecified) | 6.91 µM | 26.3 µM | 1.62 µM | 3.05 µM | 17 µM | 50.4 µM | 6 µM | 20 µM | 1.59 µM | 3.5 µM | 3.83 µM | 43.5 µM | 1.95 µM | 4.25 µM | 2.5 µM | 8.98 µM | 3.54 µM | 12.7 µM | 6.4 µM | 21.7 µM
Cc1cc(O)c(C(C)C)cc1S(=O)(=O)O (tested in a mixture with another compound) | 0.856 µM | 4.79 µM | 0.343 µM | – | 0.27 µM | – | 0.281 µM | – | 0.483 µM | – | 0.658 µM | 4.79 µM | 0.404 µM | – | 0.507 µM | 6.64 µM | 0.224 µM | – | 0.188 µM | 1.66 µM
COc1cc(OC(=O)c2ccccc2)cc2c1C(=O)C=CC2=O | – | 4.73 µM | – | 13.5 µM | – | 37 µM | – | 32.1 µM | – | 36.3 µM | – | > 88.6 µM | – | 39.2 µM | – | 12.3 µM | – | 33.7 µM | – | 5.05 µM
N#CC(NC12CC3CC(CC(C3)C1)C2)c1ccc2c(c1)OCO2 (stereo unspecified) | – | > 100 µM | – | > 100 µM | – | > 100 µM | – | > 100 µM | – | > 100 µM | – | > 100 µM | – | > 100 µM | – | > 100 µM | – | > 100 µM | – | > 100 µM
COc1ccc(C2=CC(c3ccc4c(c3)OCO4)c3c(c4ccccc4oc3=O)O2)cc1OC (stereo unspecified) | – | > 100 µM | – | > 100 µM | – | > 100 µM | – | > 100 µM | – | > 100 µM | – | > 100 µM | – | > 100 µM | – | > 100 µM | – | > 22.6 µM | – | > 100 µM
Cc1c(C(N)=O)sc2c1C(=O)N(Cc1ccccc1)C1=NN=C(c3ccc(Cl)cc3)CN12 | 3.82 µM | 16.4 µM | 3.44 µM | 14.5 µM | 3.71 µM | 15.8 µM | 2.31 µM | 14.7 µM | 1.62 µM | 10.8 µM | 1.76 µM | 11.3 µM | 3.99 µM | 18.4 µM | 2.81 µM | 15.8 µM | 4.42 µM | 16.9 µM | 3.89 µM | 14.7 µM
CC(C)(C)OC(=O)N1CCN(CCn2cc(C(F)(F)F)c3c(Cl)ncnc32)CC1 | 11.5 µM | 34.5 µM | 1.68 µM | 3.15 µM | 16.7 µM | 30.7 µM | 14.5 µM | 28.1 µM | 1.73 µM | 3.24 µM | 23 µM | 67.7 µM | 2.2 µM | 4.64 µM | 13.2 µM | 26.7 µM | 18.4 µM | 37.9 µM | 3.12 µM | 10.9 µM
COc1c(C)c2c(c(O)c1C/C=C(\C)CCC(=O)O)C(=O)OC2 | 0.663 µM | > 100 µM | 0.145 µM | > 100 µM | 0.571 µM | > 100 µM | 0.278 µM | > 100 µM | 0.132 µM | > 100 µM | 0.514 µM | > 100 µM | 0.167 µM | > 100 µM | 0.776 µM | > 100 µM | 0.416 µM | > 100 µM | 0.959 µM | > 100 µM
COc1cc(C(=O)O[C@H](C(=O)NCCCCCNC(=O)[C@@H](OC(=O)c2cc(OC)cc3c(C)cccc23)[C@]2(C)CO2)[C@]2(C)CO2)c2cccc(C)c2c1 | 1 µM | – | 0.884 µM | 3.68 µM | 3.28 µM | > 30.1 µM | 2.5 µM | 6.75 µM | < 0.01 µM | < 0.0138 µM | 0.165 µM | 0.584 µM | < 0.0149 µM | > 100 µM | 0.877 µM | > 100 µM | 0.286 µM | – | 0.292 µM | 0.867 µM
COc1cc(NC(C)CCCNC2CN3CCC2CC3)c2ncccc2c1 (stereo unspecified) | 4.54 µM | 20.5 µM | 3.75 µM | 13.9 µM | 15.2 µM | 28.5 µM | 11.6 µM | 27.7 µM | 9.6 µM | 25 µM | 24.6 µM | > 100 µM | 11.9 µM | 27.6 µM | 1.84 µM | 6.51 µM | 2.58 µM | 7.16 µM | 4.37 µM | 21.8 µM
COc1ccc(-c2cc(=O)[nH]c3c(OC)c4ccccc4c(OC)c23)cc1 | 0.356 µM | > 100 µM | 0.38 µM | > 100 µM | 0.606 µM | > 100 µM | 0.272 µM | – | 0.655 µM | > 100 µM | 0.291 µM | – | 0.418 µM | > 100 µM | 1.21 µM | > 100 µM | 0.424 µM | 3.52 µM | 0.409 µM | > 100 µM
CC(C)(C)n1cc(-c2ccnc(NCCCNS(=O)(=O)c3ccc(C(F)(F)F)cc3)c2)c(-c2cccc(O)c2)n1 | 2.24 µM | 6.61 µM | 1.55 µM | 3.08 µM | 2.69 µM | 6.75 µM | 1.69 µM | 3.12 µM | 1.72 µM | 3.09 µM | 2.07 µM | 4.3 µM | 1.89 µM | 3.71 µM | 2.29 µM | 5.25 µM | 1.95 µM | 3.78 µM | 1.6 µM | 3.31 µM
